Experimental data from article PMC9698483, “Berbamine Reduces Chloroquine-Induced Itch in Mice through Inhibition of MrgprX1” (International Journal of Molecular Sciences, 2022).

Legend:
[1] = target: T1, PAR2 (Homo sapiens, UniProt P55085); test: PAR2-AP-induced activation of PAR2 in HT29 cells (calcium); type: cell-based; details: 30 μM compound, 10 min prior to 30 μM PAR2-AP
T1 construct: endogenous in cells; host or cells: HT29
T1 sequence (P55085 26-397): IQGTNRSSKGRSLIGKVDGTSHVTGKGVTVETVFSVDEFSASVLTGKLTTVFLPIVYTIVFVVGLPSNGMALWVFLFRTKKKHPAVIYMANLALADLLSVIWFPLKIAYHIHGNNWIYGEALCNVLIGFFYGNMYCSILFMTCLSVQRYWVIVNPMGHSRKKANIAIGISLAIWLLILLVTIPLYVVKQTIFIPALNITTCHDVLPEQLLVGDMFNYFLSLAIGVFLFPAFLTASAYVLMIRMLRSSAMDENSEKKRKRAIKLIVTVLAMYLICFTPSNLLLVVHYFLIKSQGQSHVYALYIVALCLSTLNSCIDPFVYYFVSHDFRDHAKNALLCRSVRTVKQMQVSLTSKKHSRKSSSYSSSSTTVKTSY
Description: (§1) To investigate the effect of berbamine on other pruritogenic GPCRs, we observed the effect of berbamine on histamine H1 receptor (H1R), histamine H4 receptor (H4R), MrgprC11, MrgprX4, PAR2, and TGR5.
(§2) Figure 3 Effects of berbamine on the activity of other pruritogenic GPCRs: (A,B) Effect of berbamine on histamine 1 receptor (H1R) and histamine 4 receptor (H4R). H1R- and H4R-expressing HEK293T cells were pretreated with 30 μM BBM for 10 min prior to 100 μM histamine treatment. […] (C) Effect of berbamine on PAR2. HT29 cells were pretreated with BBM for 10 min prior to 30 μM PAR2-AP treatment. […] (D) Effect of berbamine on MrgprC11. MrgprC11-expressing HEK293T cells were pretreated with BBM for 10 min prior to 100 μM […] treatment. (E) Effect of berbamine on MrgprX4. MrgprX4-expressing HEK293T cells were pretreated with BBM for 10 min prior to 80 μM DCA treatment. (F) Effect of berbamine on TGR5. TGR5 activity was measured using a YFP fluorescence quenching assay. CHO-K1 cells coexpressing TGR5 and a halide sensor YFP were pretreated with BBM and 80 μM DCA for 10 min prior to I^- treatment. Results were summarized as means ± S.E. (n = 6). NTC, nontransfected cells.
(§3) Intracellular calcium levels were measured using a Fluo-4 NW calcium assay kit (Invitrogen, Carlsbad, CA) as per the manufacturer’s protocol in HEK293T and HT29 cells. […]

[2] = target: T2, histamine H1 receptor (H1R) (Homo sapiens, UniProt P35367); test: Histamine-induced activation of H1R in H1R-expressing HEK293T cells (calcium); type: cell-based; details: 30 μM compound, 10 min prior to 100 μM histamine
T2 construct: expressed in transfected cells; host or cells: HEK293T
Description: as §1, §2, §3

[3] = tested on: MrgprX1 or MrgprA3; design: method as in PMID 16510108, PMID 32536619; details: read-out: IC50 (potency as antagonist); cited from earlier work
[4] = tested on: CQ-induced itch; design: method as in PMID 16510108, PMID 32536619, PMID 35066892; details: cited from earlier work
[5] = tested on: histamine-induced itch; design: method as in PMID 16510108, PMID 32536619, PMID 35066892; details: cited from earlier work
[6] = target: T3, MrgprX1 (Homo sapiens, UniProt Q96LB2); test: Intracellular calcium measurement (Fluo-4 NW) in HEK293T cells expressing MrgprX1; type: cell-based
T3 construct: expressed in transfected cells
Description: To identify novel antagonists of MrgprX1, a cell-based screening assay was established. […] Cells were treated with the indicated concentrations of CQ where the arrow indicates. (B) Summary of dose-response (mean ± S.E., n = 6). (C) Representative Fluo−4 fluorescence traces of MrgprX1 antagonist screening. Cells were treated with 30 μM of the test compounds for 10 min prior to treatment with 300 μM CQ.
Figure 2 Effect of berbamine and closantel on CQ- and ionomycin-induced increases in intracellular calcium levels: (A,B) Intracellular calcium levels were measured using Fluo−4 NW in HEK293T cells expressing MrgprX1. The cells were pretreated with the indicated concentrations of berbamine (BBM) and closantel (CLS) for 10 min prior to treatment with 300 μM CQ. (C) Summary of dose-response (mean ± S.E., n = 6). […] The cells were pretreated with the indicated concentrations of BBM and CLS for 10 min before treatment with ionomycin. (F) Summary of dose–response (mean ± S.E., n = 6).
Intracellular calcium levels were measured using a Fluo-4 NW calcium assay kit (Invitrogen, Carlsbad, CA) as per the manufacturer’s protocol in HEK293T and HT29 cells. Briefly, the cells were plated in a 96-well black-walled plate and incubated with 100 μL of assay buffer including Fluo-4 NW. […] Intracellular calcium increase was induced with the application of the indicated agonist. All modulators were dissolved in DMSO, and cells were treated with a final concentration of 1% DMSO.

[7] = tested on: HEK293T cells; test: Ionomycin-induced increase in intracellular calcium levels in HEK293T cells; type: cell-based; details: 10 μM ionomycin, 10 min pretreatment
Description: To investigate whether berbamine and closantel affect calcium signaling pathways, we observed the effects of berbamine and closantel on CQ- and ionomycin-induced increases in intracellular calcium concentrations in HEK-MrgprX1 and HEK293T cells, respectively.
Figure 2 Effect of berbamine and closantel on CQ- and ionomycin-induced increases in intracellular calcium levels: (A,B) Intracellular calcium levels were measured using Fluo−4 NW in HEK293T cells expressing MrgprX1. The cells were pretreated with the indicated concentrations of berbamine (BBM) and closantel (CLS) for 10 min prior to treatment with 300 μM CQ. (C) Summary of dose-response (mean ± S.E., n = 6). (D,E) Intracellular calcium levels were increased with 10 μM ionomycin in HEK239T cells. The cells were pretreated with the indicated concentrations of BBM and CLS for 10 min before treatment with ionomycin. (F) Summary of dose–response (mean ± S.E., n = 6).
(§4) Intracellular calcium levels were measured using a Fluo-4 NW calcium assay kit (Invitrogen, Carlsbad, CA) as per the manufacturer’s protocol in HEK293T and HT29 cells. […] After 1 h of incubation, Fluo-4 fluorescence was recorded with a FLUOstar Omega microplate reader equipped with syringe pumps and custom Fluo-4 excitation/emission filters (485/538 nm). […]

[8] = tested on: ERK1/2 phosphorylation through MrgprX1; test: Immunoblot of ERK1/2 phosphorylation in HEK293T cells expressing MrgprX1; type: cell-based, human; details: HEK-MrgprX1 cells
[9] = target: T4, MrgprA3 (Mus musculus, UniProt Q91WW3); test: Intracellular calcium measurement in HEK293T cells expressing mouse MrgprA3; type: cell-based; details: HEK293T cells overexpressing MrgprA3; read-out: EC50 of MrgprA3 activation
T4 construct: expressed in transfected cells; host or cells: HEK293T
T4 sequence (Q91WW3 1-302): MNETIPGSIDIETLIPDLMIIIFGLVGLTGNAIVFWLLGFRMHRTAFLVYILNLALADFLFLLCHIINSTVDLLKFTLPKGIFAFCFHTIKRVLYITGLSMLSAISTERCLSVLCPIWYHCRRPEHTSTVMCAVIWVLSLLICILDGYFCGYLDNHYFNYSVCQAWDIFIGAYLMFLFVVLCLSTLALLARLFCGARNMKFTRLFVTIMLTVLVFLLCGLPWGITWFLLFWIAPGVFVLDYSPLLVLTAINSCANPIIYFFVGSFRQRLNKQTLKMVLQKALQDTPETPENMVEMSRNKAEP
Description: MRGPRA3 and MRGPRC11 are mouse orthologs of human MRGPRX1, and MrgprA3 is also activated by CQ, resulting in CQ-induced pruritus. To investigate the inhibitory effect of berbamine on MrgprA3, we established HEK293T cells overexpressing MrgprA3. […] We further investigated whether berbamine inhibited CQ-induced ERK1/2 phosphorylation in HEK-MrgprA3 cells. Strong and significant ERK1/2 phosphorylation was observed following CQ application, and ERK1/2 phosphorylation peaked 5 min after CQ treatment (Figure 6A,B).
Figure 5 Effect of berbamine on CQ-induced activation of MrgprA3: (A) Intracellular calcium levels were measured in HEK293T cells expressing mouse MrgprA3. Cells were treated with indicated concentrations of CQ. (B) Summary of dose–response (mean ± S.E., n = 6). (C) Cells were pretreated with indicated concentrations of berbamine for 10 min prior to 300 μM CQ treatment. (D) Summary of dose-response (mean ± S.E., n = 6). (E) Representative traces of intracellular calcium responses to BAM8−22 in HEK293T cells expressing MrgprC11. […]
as §4

[10] = tested on: ERK1/2 phosphorylation through MrgprA3; test: Immunoblot of ERK1/2 phosphorylation in HEK293T cells expressing MrgprA3; type: cell-based, mouse; details: HEK-MrgprA3 cells
[11] = tested on: CQ-resistant strain of P. falciparum; design: method as in doi:10.1002/ddr.430300405; details: in vitro, compound alone; read-out: IC50 antimalaria effect, CQ-resistant strain; cited from earlier work

T3 sequence (Q96LB2 whole entry): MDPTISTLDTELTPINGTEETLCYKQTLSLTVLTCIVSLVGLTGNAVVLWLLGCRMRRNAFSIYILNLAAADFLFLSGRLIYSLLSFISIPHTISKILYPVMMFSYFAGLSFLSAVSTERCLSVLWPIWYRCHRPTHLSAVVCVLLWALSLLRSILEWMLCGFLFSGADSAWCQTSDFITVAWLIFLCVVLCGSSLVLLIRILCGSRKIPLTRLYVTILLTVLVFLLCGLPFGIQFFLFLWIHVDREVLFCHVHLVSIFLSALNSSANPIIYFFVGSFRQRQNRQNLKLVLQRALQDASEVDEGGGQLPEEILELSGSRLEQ
T2 sequence (P35367 whole entry, species assumed): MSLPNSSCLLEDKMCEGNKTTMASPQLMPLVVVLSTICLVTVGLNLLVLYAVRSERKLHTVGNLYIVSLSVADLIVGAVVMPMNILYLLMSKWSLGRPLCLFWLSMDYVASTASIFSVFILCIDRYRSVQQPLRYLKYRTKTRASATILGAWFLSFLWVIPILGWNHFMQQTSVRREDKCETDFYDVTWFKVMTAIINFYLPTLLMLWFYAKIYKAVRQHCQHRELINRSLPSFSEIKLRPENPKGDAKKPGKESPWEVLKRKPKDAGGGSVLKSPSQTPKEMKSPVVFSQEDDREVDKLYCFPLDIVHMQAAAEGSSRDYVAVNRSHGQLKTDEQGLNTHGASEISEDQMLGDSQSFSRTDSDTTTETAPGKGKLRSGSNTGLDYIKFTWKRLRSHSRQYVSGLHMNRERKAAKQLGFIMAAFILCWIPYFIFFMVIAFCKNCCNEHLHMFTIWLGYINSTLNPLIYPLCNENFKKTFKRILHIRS

For O=C1O[C@H]2[C@@H]3OC(=O)c4cc(O)c(O)c(O)c4-c4c(O)c(O)c5oc(=O)c6c(c(O)c(O)c7oc(=O)c4c5c76)-c4c(cc(O)c(O)c4O)C(=O)OC[C@H]3OC(O)[C@@H]2OC(=O)c2cc(O)c(O)c(O)c2-c2c1cc(O)c(O)c2O (mixture of isomers) [punicalagin, reference compound], the “effect on PAR2-AP-induced activation of PAR2” value [1] was “significantly blocked”.

With CN1CCC(=C2c3ccccc3CCn3c(C=O)cnc32)CC1 [alcaftadine, reference compound] the “effect on histamine-induced activation of H1R” value [2] was “significantly blocked”.

For CC=CC(=O)N(CC)c1ccccc1C (mixture of isomers) [crotamiton], the IC50 [3] is listed as 326 µM, the “effect on CQ-induced itch” value [4] is listed as “inhibits” and the “effect on histamine-induced itch” value [5] is listed as “inhibits”.

In the case of Cc1cc(C(C#N)c2ccc(Cl)cc2)c(Cl)cc1NC(=O)c1cc(I)cc(I)c1O (stereo not shown) [closantel, reference compound], the inhibition at 30 µM ([6]; HEK-293T, read-out: inhibition of the CQ-induced activation of MrgprX1 (screening)) is reported as over 90%, the IC50 ([6]; pretreated 10 min prior to 300 μM CQ, read-out: IC50 of inhibition of CQ-induced MrgprX1 activation) is reported as 3.6 µM and the “effect on ionomycin-induced increase in intracellular calcium levels” value [7] is reported as “inhibited it in a dose-dependent manner”.

In the case of CCN(CC)CCCC(C)Nc1ccnc2cc(Cl)ccc12 (stereo not shown) [CQ, Chloroquine], the EC50 ([6]; HEK-MrgprX1 cells, Fluo-4, read-out: EC50 of increase in intracellular calcium levels (MrgprX1 activation)) is reported as 96 µM, the “time of peak ERK1/2 phosphorylation after treatment” value [8] is reported as 10 min and the EC50 [9] is reported as 234 µM. The “time of peak ERK1/2 phosphorylation after treatment” value [10] was 5 min and the IC50 [11] was 0.203 ± 0.0707 µM.
